{
  "source": "patent US20260042802A1",
  "about": "“POLYPEPTIDE AND USE THEREOF” (priority 2024, published 2026)",
  "system": "sciatic nerve in rats",
  "test": "Compound action potential (CAP) of the sciatic nerve in rats",
  "assay_type": "in vivo, Sprague-Dawley (SD) rats",
  "conditions": "20 μL of 30, 100, 300 nM on sciatic nerve; before and after needling; vs negative control group (p<0.05)",
  "experimental": "Four SPF-grade healthy Sprague-Dawley (SD) rats are randomly selected, half males and half females, weighing 180˜200 g, 6˜8 weeks old. The rats are first acclimatized and fed for 1 week, fasted for 12 h before the experiment, with free access to water.\nRats weighing between 180 g and 200 g are taken and anesthetized with 7% chloral hydrate solution at a concentration of 0.4 mL/100 g. […] Then, the fully anesthetized rats are placed on the operating table so that their backs are facing upwards and their paws are held in place with a string. The skin and connective tissue of the leg are cut sequentially, and the muscles between the biceps femoris and the gluteus superficialis are bluntly-dissected. […]\nObservations are performed on rats in the polypeptide PPN-01 group and in the negative control drug lidocaine group, and the effect of each concentration of polypeptide PPN-01 on the peak amplitude of the positive and negative phases of the CAP in the sciatic nerve of rats is assessed by the inhibition rate. […]\nFour to six CAPs within 2 min after each recording time period are selected for analysis, and the mean peak amplitude is calculated as the representative CAP peak amplitude and time course for each group, with the peak amplitude of the CAP being the difference between the baseline and the peak CAP.",
  "note": "Where a SMILES comes first, the peptide text is derived from it. Bridges are numbered along the chain shown (N, C = ends).",
  "data": [
    {"smiles": "CSCC[C@@H]1NC(=O)CNC(=O)[C@H](CCC(=O)O)NC(=O)[C@@H]2CSSC[C@H](NC(=O)[C@H](Cc3ccc(O)cc3)NC(C)=O)C(=O)N[C@@H](CCC(N)=O)C(=O)N[C@@H](CCCCN)C(=O)N[C@@H](Cc3ccccc3)C(=O)N[C@@H](CC(C)C)C(=O)N[C@@H](C)C(=O)N3CCC[C@H]3C(=O)N[C@H]3CSSC[C@H](NC(=O)[C@H](CCC(=O)O)NC1=O)C(=O)N[C@@H](CCCCN)C(=O)N[C@@H](CC(C)C)C(=O)N[C@@H](Cc1c[nH]c4ccccc14)C(=O)N[C@H](C(=O)N[C@@H](CCCCN)C(=O)N[C@@H](CCCCN)C(=O)N[C@@H](CCCCN)C(=O)N[C@@H](CC(C)C)C(=O)N[C@@H](Cc1c[nH]c4ccccc14)C(N)=O)CSSC[C@H](NC(=O)[C@H](CCCCN)NC(=O)[C@H](CCCNC(=N)N)NC(=O)[C@H](CCC(=O)O)NC(=O)[C@H](CO)NC(=O)[C@H](CC(=O)O)NC3=O)C(=O)N2", "note": "[PPN-01] (Ac-YCQKFLAPCDSERKCCEGMECKLWCKKKLW-NH2; disulfide 2-16, 9-21, 15-25)", "values": [
      {"measurement": "peak amplitude of CAP (positive and negative phases)", "result": "significantly decreased"}
    ]}
  ]
}
